Assay results taken from EP0003008A1 (priority 1977, dated 1979).
Several values for one entry are separate records, joined by “and”; a condition that tells them apart may be missing. Equal values may be shown once. Read-outs that look alike come from different tables or passages of the source.

What was measured:
[1] = molecular target: cell-free influenza polymerase (Influenza A virus, UniProt P03431); assay: Cell-free influenza polymerase assay; format: biochemical; conditions: in diluted urine; assay mixture includes Mn2+; used as standard; read-out: 50% inhibition
[2] = Acid stability test in 0.1 N HCl, thin layer chromatography estimate of decomposition products; format: physicochemical; conditions: 100 µg compound applied
Method: The acid stability was investigated by dissolving 5 mg of each compound in 1 ml of 0.1 N HC1 in a test tube. For use as references 0.2 ml of each solution was withdrawn, immediately treated with 0.2 ml of a 10 % aqueous solution of NaHCO3 and frozen. The remaining 0.8 ml of each solution was incubated at 37°C for 2 hours. After incubation, 0.8 ml of a 10 % aqueous solution of NaHCO3 was added to each solution and the solutions were frozen. The incubated compounds and the reference compounds were ly ophilized to dryness and redissolved in distilled H20, 0.2 ml and 1.0 ml respectively, for each reference solution and incubated solution. The solutions were applied to silica gel (Merck PF254, 20x20 cm) and polyethylene imine (Macherey-Nagel PEI, 20x20 cm) thin layer plates. A total of 20 µl of the reference solutions (100 µg compound) and 25 µl of the incubated solutions (100 µg compound) were applied. To each plate was also added, as references, solutions of phosphorous acid (H2HPO3) (5 and 20 µg) and of trisodiumphosphonoformate (5 and 20 µg). (Decomposition of phosphonoformic acid at low pH produces phosphorous acid).
The silica gel plates were prepared in duplicate and eluted with a solution composed of methanol - 10% aq ammonia - trichloroacetic acid - water (50-15-5-3, v/v) and the polyethylene imine plates were eluted with a 1M aq lithium chloride solution. After elution the plates were dried. One of the duplicated silica gel plates was sprayed with 4 % aq . (NH4)2MoO4 and the polyethylene imine plates were sprayed with a solution composed of 60 % HClO4 - 0.1N aq Hcl - 4% aq (NH4)2MoO4 - H2O (5-10-25-60, v/v). The silica gel plates were hriefly dried at 80-90°C and sprayed with 1% SnCl2 in 10% aq RCl. phosphorous acid and phosphonic acid groups appeared as blue apots on the siliea gel plates (System 1) and as white spots on the polyethylene imine plates (System II). The remaining duplicate silica gel plates were exposed to iodine vapor for detection of di- and triesters of phosphonoformic acid. […]

[3] = 10 µmol intraperitoneally, urine from two male mice
[4] = test system: influenza (WSN Wilson Smith Neurotropic type A); assay: Plaque assay of influenza (WSN) on cell monolayers; format: cell-based, influenza virus (WSN); conditions: conc. of test compound 500 μM, 34°C for 4 days, two values given
[5] = incubated in 0.1 N HCl at 37°C for 2 hours

| SMILES | Estimated formation of phosphorous acid [2, 5] [µg] | Recovered phosphonoformic acid activity in urine ([3]; Day 1) [µmol phosphonoformic acid] | Recovered phosphonoformic acid activity in urine ([3]; Day 2) [µmol phosphonoformic acid] | Recovered phosphonoformic acid activity in urine ([3]; Day 3) [µmol phosphonoformic acid] | also measured |
| --- | --- | --- | --- | --- | --- |
| O=C(O)P(=O)(O)O [Phosfonoformic acid, phosphonoformic acid] |  |  |  |  | IC50 [1]: 500 nM |
| NC(=O)P(=O)(O)O [R1=Na R2=Na R4=H R5=H] | 15 |  |  |  | Estimated formation of phosphorous acid ([2]; non-incubated reference solution (figure in parenthesis)): 5 µg |
| O=C(O)P(=O)(O)O [Trisodiumphosphonoformate, reference compound] | > 20 | 1.25 | 0.13 | <0.01 |  |
| CCOP(=O)(OCC)C(=O)N(CC)CC [VIS 228, diethyl diethylcarbamoylphosphonate] |  |  |  |  | Inhibition (%) [4]: 25% and 37% |
| CCN(CC)C(=O)P(=O)([O-])[O-].[Na+].[Na+] [VIS 232, disodium diethylcarbamoylphosphonate] |  | 0.63 | 0.36 | <0.01 |  |
